Measurements taken from US20120157439A1, “RAF INHIBITOR COMPOUNDS AND METHODS OF USE THEREOF” (GENENTECH, INC., priority 2009, published 2012).
pIC50: −log10 of the molar value. Where two headings read alike, the source gives them in different places.

Molecular target: T1, V600E full-length B-Raf (Homo sapiens, UniProt P15056, V600E)
T1 construct: 1 μM FSBA-MEK and 20 nM V600E full-length B-Raf; made in house; host or cells: sf9 insect cells (baculovirus)
Test: B-Raf IC50 Assay (B-RAF V600E inhibition assay, Example A)
Assay type: biochemical
Description: Determining the activity of Raf in the sample is possible by a number of direct and indirect detection methods (US 2004/0082014). Activity of human recombinant B-Raf protein may be assessed in vitro by assay of the incorporation of radio labeled phosphate to recombinant MAP kinase (MEK), a known physiologic substrate of B-Raf, according to US 2004/0127496 and WO 03/022840. The activity/inhibition of V600E full-length B-Raf was estimated by measuring the incorporation of radio labeled phosphate from [γ-33P]ATP into FSBA-modified wild-type MEK (see Example A).
Activity of human recombinant B-Raf protein may be assessed in vitro by assay of the incorporation of radio labeled phosphate to recombinant MAP kinase (MEK), a known physiologic substrate of B-Raf, according to U.S. Patent Appl. Publication No. 2004/0127496 and WO 03/022840. Catalytically active human recombinant B-Raf protein is obtained by purification from sf9 insect cells infected with a human B-Raf recombinant baculovirus expression vector.
The activity/inhibition of V600E full-length B-Raf was estimated by measuring the incorporation of radio labeled phosphate from [γ-33P]ATP into FSBA-modified wild-type MEK. The […] assay mixtures contained 25 mM Na Pipes, pH 7.2, 100 mM KCl, 10 mM MgCl2, 5 mM β-glycerophosphate, 100 μM Na Vanadate, 4 μM ATP, 500 nCi [γ-33P]ATP, 1 μM FSBA-MEK and 20 nM V600E full-length B-Raf. Incubations were carried out at 22° C. in a Costar 3365 plate (Corning). Prior to the assay, the B-Raf and FSBA-MEK were preincubated together in assay buffer at 1.5× (20 μL of 30 nM and 1.5 μM, respectively) for 15 minutes, and the assay was initiated by the addition of 10 μL of […]. Following the 60-minute incubation, the assay mixtures were quenched by the addition of 100 μL of 25% TCA, the plate was mixed on a rotary shaker for 1 minute, and the product was captured on a Perkin-Elmer GF/B filter plate using a Tomtec Mach III Harvester. After sealing the bottom of the plate, 35 μL of Bio-Safe II (Research Products International) scintillation cocktail were added to each well and the plate was top-sealed and counted in a Topcount NXT (Packard).

[1] = B-Raf V600E assay of Example A: less than 100 nM, read-out: IC50
[2] = B-Raf V600E assay of Example A: less than about 1 μM, read-out: IC50
[3] = incorporation of radio labeled phosphate from [γ-33P]ATP into FSBA-modified wild-type MEK, 4 μM ATP, 20 nM V600E full-length B-Raf, 60-minute incubation, 22° C., read-out: BRAF V600E IC50

T1 sequence (P15056 whole entry V600E): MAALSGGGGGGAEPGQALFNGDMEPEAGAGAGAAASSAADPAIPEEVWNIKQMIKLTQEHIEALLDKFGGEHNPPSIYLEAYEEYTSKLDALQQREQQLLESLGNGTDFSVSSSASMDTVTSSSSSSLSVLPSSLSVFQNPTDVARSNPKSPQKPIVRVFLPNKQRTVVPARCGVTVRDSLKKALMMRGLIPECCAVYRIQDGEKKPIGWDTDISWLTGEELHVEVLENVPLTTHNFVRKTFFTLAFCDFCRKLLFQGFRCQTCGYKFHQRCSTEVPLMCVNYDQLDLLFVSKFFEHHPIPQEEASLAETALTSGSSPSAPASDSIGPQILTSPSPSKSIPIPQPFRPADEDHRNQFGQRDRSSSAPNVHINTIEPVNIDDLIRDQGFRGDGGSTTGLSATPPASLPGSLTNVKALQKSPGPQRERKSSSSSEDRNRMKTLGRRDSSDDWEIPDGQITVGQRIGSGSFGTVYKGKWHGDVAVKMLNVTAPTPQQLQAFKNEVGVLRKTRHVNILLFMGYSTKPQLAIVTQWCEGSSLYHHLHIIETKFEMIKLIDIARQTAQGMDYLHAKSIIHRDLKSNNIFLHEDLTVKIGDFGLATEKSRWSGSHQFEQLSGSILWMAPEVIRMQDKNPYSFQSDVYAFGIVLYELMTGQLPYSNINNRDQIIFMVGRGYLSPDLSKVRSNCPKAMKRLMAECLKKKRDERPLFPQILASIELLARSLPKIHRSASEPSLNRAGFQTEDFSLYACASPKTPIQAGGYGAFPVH

`CCCS(=O)(=O)Nc1ccc(F)c(NC(=O)c2csc3c(NC)ncnc23)c1F` [Example 46, 4-Methylamino-thieno[3,2-d]pyrimidine-7-carboxylic acid [2,6-difluoro-3-(propane-1-sulfonylamino)-phenyl]-amide] gave a pIC50 [1] of over 7.00, a pIC50 [2] of over 6.00 and a pIC50 [3] of 7.30.
Work on `CCCS(=O)(=O)Nc1ccc(F)c(NC(=O)c2csc3c(NC4CC4)ncnc23)c1F` [Example 47] yielded a pIC50 [1] of over 7.00, a pIC50 [2] of over 6.00 and a pIC50 [3] of 8.33.
`CCCS(=O)(=O)Nc1ccc(F)c(NC(=O)c2csc3c(NCC)ncnc23)c1F` [Example 48, 4-Ethylamino-thieno[3,2-d] pyrimidine-7-carboxylic acid [2,6-difluoro-3-(propane-1-sulfonylamino)-phenyl]-amide] was tested, and the pIC50 [1] was over 7.00, the pIC50 [2] was over 6.00 and the pIC50 [3] was 7.94.
With `CCCNc1ncnc2c(C(=O)Nc3c(F)ccc(NS(=O)(=O)CCC)c3F)csc12` [Example 49, 4-Propylamino-thieno[3,2-d] pyrimidine-7-carboxylic acid [2,6-difluoro-3-(propane-1-sulfonylamino)-phenyl]-amide] the pIC50 [1] was over 7.00, the pIC50 [2] was over 6.00 and the pIC50 [3] was 7.96.
With `CCCS(=O)(=O)Nc1ccc(F)c(NC(=O)c2csc3c(NC(C)C)ncnc23)c1F` [Example 50, 4-Isopropyl-amino-thieno [3,2-d] pyrimidine-7-carboxylic acid [2,6-difluoro-3-(propane-1-sulfonylamino)-phenyl]-amide] the pIC50 [1] was over 7.00, the pIC50 [2] was over 6.00 and the pIC50 [3] was 7.44.
Work on `CCCC(C)Nc1ncnc2c(C(=O)Nc3c(F)ccc(NS(=O)(=O)CCC)c3F)csc12` (centres unmarked) [Example 51, 4-(1-Methyl-butylamino)-thieno[3,2-d] pyrimidine-7-carboxylic acid [2,6-difluoro-3-(propane-1-sulfonylamino)-phenyl]-amide] yielded a pIC50 [2] of over 6.00 and a pIC50 [3] of 6.66.
With `CCCS(=O)(=O)Nc1ccc(F)c(NC(=O)c2csc3c(NCCF)ncnc23)c1F` [Example 52, 4-(2-Fluoro-ethylamino)-thieno[3,2-d] pyrimidine-7-carboxylic acid [2,6-difluoro-3-(propane-1-sulfonylamino)-phenyl]-amide] the pIC50 [1] was over 7.00, the pIC50 [2] was over 6.00 and the pIC50 [3] was 7.80.
For `CCCS(=O)(=O)Nc1ccc(F)c(NC(=O)c2csc3c(NCC(F)F)ncnc23)c1F` [Example 53, 4-(2,2-Difluoro-ethylamino)-thieno[3,2-d] pyrimidine-7-carboxylic acid [2,6-difluoro-3-(propane-1-sulfonylamino)-phenyl]-amide], the pIC50 [1] was over 7.00, the pIC50 [2] was over 6.00 and the pIC50 [3] was 7.58.
`CCCS(=O)(=O)Nc1ccc(F)c(NC(=O)c2csc3c(NC4CCCC4)ncnc23)c1F` [Example 54, 4-Cyclopentyl-amino-thieno [3,2-d] pyrimidine-7-carboxylic acid [2,6-difluoro-3-(propane-1-sulfonylamino)-phenyl]-amide] gave a pIC50 [2] of over 6.00 and a pIC50 [3] of 6.38.
`CCCS(=O)(=O)Nc1ccc(F)c(NC(=O)c2csc3c(NC4CCC4)ncnc23)c1F` [Example 55, 4-Cyclobutyl-amino-thieno [3,2-d] pyrimidine-7-carboxylic acid [2,6-difluoro-3-(propane-1-sulfonylamino)-phenyl]-amide] showed a pIC50 [1] of over 7.00, a pIC50 [2] of over 6.00 and a pIC50 [3] of 7.34.
`CCCS(=O)(=O)Nc1ccc(F)c(NC(=O)c2csc3c(NCC4CC4)ncnc23)c1F` [Example 56, 4-(Cyclopropyl-methylamino)-thieno[3,2-d] pyrimidine-7-carboxylic acid [2,6-difluoro-3-(propane-1-sulfonylamino)-phenyl]-amide] showed a pIC50 [1] of over 7.00, a pIC50 [2] of over 6.00 and a pIC50 [3] of 7.12.
`CCCS(=O)(=O)Nc1ccc(F)c(NC(=O)c2csc3c(NCC(C)C)ncnc23)c1F` [Example 57, 4-Isobutylamino-thieno[3,2-d] pyrimidine-7-carboxylic acid [2,6-difluoro-3-(propane-1-sulfonylamino)-phenyl]-amide] showed a pIC50 [1] of over 7.00, a pIC50 [2] of over 6.00 and a pIC50 [3] of 7.89.
For `CCCS(=O)(=O)Nc1ccc(F)c(NC(=O)c2csc3c(NCC(C)(C)C)ncnc23)c1F` [Example 58, 4-(2,2-Dimethyl-propylamino)-thieno[3,2-d] pyrimidine-7-carboxylic acid [2,6-difluoro-3-(propane-1-sulfonylamino)-phenyl]-amide], the pIC50 [2] was over 6.00 and the pIC50 [3] was 6.04.
In the case of `CCCS(=O)(=O)Nc1ccc(F)c(NC(=O)c2csc3c(NCCO)ncnc23)c1F` [Example 59, 4-(2-Hydroxy-ethylamino)-thieno[3,2-d] pyrimidine-7-carboxylic acid [2,6-difluoro-3-(propane-1-sulfonylamino)-phenyl]-amide], the pIC50 [1] was over 7.00, the pIC50 [2] was over 6.00 and the pIC50 [3] was 7.24.
With `CCCS(=O)(=O)Nc1ccc(F)c(NC(=O)c2csc3c(NCCOC)ncnc23)c1F` [Example 60, 4-(2-Methoxy-ethylamino)-thieno[3,2-d] pyrimidine-7-carboxylic acid [2,6-difluoro-3-(propane-1-sulfonylamino)-phenyl]-amide] the pIC50 [2] was over 6.00 and the pIC50 [3] was 6.75.
`CCCS(=O)(=O)Nc1ccc(F)c(NC(=O)c2csc3c(Nc4cnn(C)c4)ncnc23)c1F` [Example 61, 4-(1-Methyl-1H-pyrazol-4-ylamino)-thieno[3,2-d] pyrimidine-7-carboxylic acid [2,6-difluoro-3-(propane-1-sulfonylamino)-phenyl]-amide] was tested, and the pIC50 [1] was over 7.00, the pIC50 [2] was over 6.00 and the pIC50 [3] was 8.77.
With `CCCS(=O)(=O)Nc1ccc(F)c(NC(=O)c2csc3c(Nc4ccccn4)ncnc23)c1F` [Example 62, 4-(Pyridin-2-ylamino)-thieno[3,2-d] pyrimidine-7-carboxylic acid [2,6-difluoro-3-(propane-1-sulfonylamino)-phenyl]-amide] the pIC50 [1] was over 7.00, the pIC50 [2] was over 6.00 and the pIC50 [3] was 7.57.
With `CCCS(=O)(=O)Nc1ccc(F)c(NC(=O)c2csc3c(Nc4ccccc4)ncnc23)c1F` [Example 63, 4-Phenylamino-thieno[3,2-d]pyrimidine-7-carboxylic acid [2,6-difluoro-3-(propane-1-sulfonylamino)-phenyl]-amide] the pIC50 [1] was over 7.00, the pIC50 [2] was over 6.00 and the pIC50 [3] was 7.45.
In the case of `O=C(Nc1c(F)ccc(NS(=O)(=O)CCCF)c1F)c1csc2c(NC3CC3)ncnc12` [Example 64, 4-Cyclopropylamino-thieno[3,2-d]pyrimidine-7-carboxylic acid [2,6-difluoro-3-(3-fluoro-propane-1-sulfonylamino)-phenyl]amide], the pIC50 [1] was over 7.00, the pIC50 [2] was over 6.00 and the pIC50 [3] was 8.96.
`CCCS(=O)(=O)Nc1ccc(Cl)c(NC(=O)c2csc3c(NOC)ncnc23)c1Cl` [Example 65, 4-Methoxyamino-thieno[3,2-d]pyrimidine-7-carboxylic acid [2,6-dichloro-3-(propane-1-sulfonylamino)-phenyl]amide] was tested, and the pIC50 [1] was over 7.00, the pIC50 [2] was over 6.00 and the pIC50 [3] was 8.92.
In the case of `CCCS(=O)(=O)Nc1ccc(Cl)c(NC(=O)c2csc3c(NC4CC4)ncnc23)c1Cl` [Example 66, 4-Cyclopropylamino-thieno[3,2-d]pyrimidine-7-carboxylic acid [2,6-dichloro-3-(propane-1-sulfonylamino)-phenyl]-amide], the pIC50 [1] was over 7.00, the pIC50 [2] was over 6.00 and the pIC50 [3] was 9.70.
Compound `CCCS(=O)(=O)Nc1ccc(Cl)c(NC(=O)c2csc3c(NN4CCOCC4)ncnc23)c1Cl` [Example 67, 4-(Morpholin-4-ylamino)-thieno[3,2-d] pyrimidine-7-carboxylic acid [2,6-dichloro-3-(propane-1-sulfonyl-amino)-phenyl]-amide] has a pIC50 [1] of over 7.00, a pIC50 [2] of over 6.00 and a pIC50 [3] of 9.70.
`CCCS(=O)(=O)Nc1ccc(Cl)c(NC(=O)c2csc3c(NC4COC4)ncnc23)c1Cl` [Example 68, 4-(Oxetan-3-ylamino)-thieno[3,2-d] pyrimidine-7-carboxylic acid [2,6-dichloro-3-(propane-1-sulfonyl-amino)-phenyl]-amide] showed a pIC50 [1] of over 7.00, a pIC50 [2] of over 6.00 and a pIC50 [3] of 8.74.
